Data published in patent publication US20260373127A1, “USE OF DIHYDROBERBERINE OR ITS DERIVATIVES FOR REGULATING GLP-1” (NANJING NUTRABUILDING BIO-TECH CO., LTD., priority 2024, published 2026).

Experiments:
[1] = test system: GLP-1; test: Serum GLP-1 by ELISA; type: in vivo, mice; conditions: 1.5 mg/kg; result in words
Procedure: (§1) At the beginning of the experiment, the mice were divided randomly into control mice (Group 1, n=8), HFD group (Group 2, n=8), HFD+DHB group (Group 3, n=8) and NC+DHB group (Group 4, n=8). The dosage of DHB supplementation is 1.5 mg/kg. The group 1 is the control group and is given the normal chow; the group 2 is the high-fat mouse and continue high fat diet for 8 weeks; the group 3 also continued to eat a high-fat diet and received daily intragastric administration of sample for 8 weeks; the group 4 is given the normal chow and received daily intragastric administration of sample for 8 weeks. Record the body fat and weight of each group of mice every week. Complete Oral glucose tolerance test (OGTT)/Insulin intraperitoneal tolerance test (IPTT) on the last day of week 8, then execute the mice and take serum −80 °C for storage.
(§2) Serum detection by ELISA: At week 8th of the experiment, the whole blood is extracted by removing the eyeball. The serum was acquired after centrifugation (10000 rpm 15 mins), stored at −80 °C for later use. Determinate the concentration of insulin (INS), cholesterol (TC), triglycerides (TG), LDL (low density lipoprotein), HDL (high density lipoprotein), GLP-1 in serum by ELISA kits.

[2] = Weight of the fat pad; type: in vivo, mice; conditions: 1.5 mg/kg; result in words
Procedure: as §1
Weight of the fat pad: At the 17th week, the mice were sacrificed, and the fat pads (subcutaneous, epididymis and perirenal) were dissected, photographed and weighed.

[3] = Insulin intraperitoneal tolerance test (IPTT); type: in vivo, mice
Procedure: as §1
(§3) Measurement of Blood Glucose: Oral glucose tolerance test (OGTT): At week 16th of the experiment, after fasting for 15 h, Glucose was given […] (2 g/kg), and blood Glucose was measured at 0, 15, 30, 60, 90, 120 mins. Insulin intraperitoneal tolerance test (IPTT): At week 16th of the experiment, after fasting for 15h, insulin (1U/kg) was injected intraperitoneally and blood glucose was measured at 0, 15, 30, 60, 90, 120 mins.

[4] = Body weight in another 14-week mice experiment; type: in vivo; conditions: 35 mg/kg
[5] = Oral glucose tolerance test (OGTT); type: in vivo, mice
Procedure: as §1, §3

[6] = Serum lipids (TC, TG, LDL, HDL) by ELISA; type: in vivo, mice
Procedure: as §1, §2

[7] = test system: GLP-1; test: GLP-1 in another 14-week mice experiment; type: in vivo; conditions: 35 mg/kg, at week 14
[8] = test system: insulin (INS); test: Serum insulin (INS) by ELISA; type: in vivo, mice; conditions: 1.5 mg/kg; result in words
Procedure: as §1, §2

[9] = Fasting blood glucose in another 14-week mice experiment; type: in vivo; conditions: 35 mg/kg, at week 13
[10] = Acute intervention study on appetite measures in human; type: in vivo; conditions: single 200 mg dose
[11] = Body composition analysis (fat content), 8-week mouse study; type: in vivo, mice; conditions: 1.5 mg/kg daily intragastric, 8 weeks
Procedure: as §1
Body composition analysis: During the experiment, the fat mass and lean mass was measured by Nuclear Magnetic Resonance Body Composition Analyzer once a week.

[12] = Change of body weight, 8-week mouse study; type: in vivo, mice; conditions: for body weight: DHB 1.5 mg/kg daily intragastric
Procedure: as §1
Change of body weight: Weigh once a week at a fixed time from beginning of the experiment.

[13] = HFD+DHB group, 1.5 mg/kg daily intragastric, 8 weeks
[14] = NC+DHB group, 1.5 mg/kg daily intragastric, 8 weeks

COc1ccc2c(c1OC)CN1CCc3cc4c(cc3C1=C2)OCO4 [DHB, dihydroberberine]
serum GLP-1 relative to mice without DHB supplementation [1]: significantly increase
pararenal fat pad weight relative to mice without DHB supplementation [2]: significantly increase
insulin tolerance relative to mice without DHB supplementation ([3]; 1.5 mg/kg, result in words): improve the blood glucose and insulin tolerance
decrease of AUC of IPTT compared with HFD group ([3]; HFD+DHB group (Group 3), 1.5 mg/kg daily intragastric, insulin 1U/kg i.p., 0-120 mins): about 27%
decrease of AUC of IPTT compared with control mice ([3]; NC+DHB group (Group 4), 1.5 mg/kg daily intragastric, insulin 1U/kg i.p., 0-120 mins): approximately 21%
benefits over time ([4]; 14-week mice experiment, result in words): Benefits intensified over time rather than plateauing
weight loss compared with untreated control group (HFD group) ([4]; by week 7): about 15%
weight loss compared with untreated control group (HFD group) ([4]; by week 13): about 33%
blood glucose tolerance relative to mice without DHB supplementation ([5]; 1.5 mg/kg, result in words): improve the blood glucose and insulin tolerance
decrease of AUC of OGTT compared with HFD group ([5]; HFD+DHB group (Group 3), 1.5 mg/kg daily intragastric, glucose 2 g/kg, 0-120 mins): approximately 19%
decrease of AUC of OGTT compared with control mice ([5]; NC+DHB group (Group 4), 1.5 mg/kg daily intragastric, glucose 2 g/kg, 0-120 mins): approximately 10%
serum HDL relative to mice without DHB supplementation ([6]; 1.5 mg/kg, result in words): significantly increase
serum LDL relative to mice without DHB supplementation ([6]; 1.5 mg/kg, result in words): decrease
serum TC relative to mice without DHB supplementation ([6]; 1.5 mg/kg, result in words): decrease
serum TG relative to mice without DHB supplementation ([6]; 1.5 mg/kg, result in words): decrease
decrease of LDL compared with HFD group [6, 13]: 32.3%
increase in serum HDL compared with HFD group [6, 13]: 19%
increase of ratio of HDL/LDL compared with HFD group [6, 13]: 76%
reduction in serum TG compared with HFD group [6, 13]: 26.1%
reduction of blood TC compared with HFD group [6, 13]: 20.6%
decrease of LDL compared with NC group [6, 14]: 18.3%
increase in serum HDL compared with NC group [6, 14]: 8.8%
increase of ratio of HDL/LDL compared with NC group [6, 14]: 33%
reduction in serum TG compared with NC group [6, 14]: 13.2%
reduction of blood TC compared with NC group [6, 14]: 9.8%
increase of GLP-1 compared with untreated control group (HFD) [7]: 165%
serum INS relative to mice without DHB supplementation [8]: decrease
decrease of fasting blood glucose compared with untreated control group (HFD group) [9]: about 16%
subjective appetite [10]: decreases subjective appetite
composite appetite score ([10]; vs placebo): beat placebo
desire to eat ([10]; vs placebo): beat placebo
fullness ([10]; vs placebo): beat placebo
hunger ([10]; vs placebo): beat placebo
prospective food consumption ([10]; vs placebo): beat placebo
decrease of fat content compared with HFD group ([11]; HFD+DHB group (Group 3)): approximately 19%
decrease of fat content compared with control mice ([11]; NC+DHB group (Group 4)): ~35%
body weight curve ([12]; DHB groups, 1.5 mg/kg, 8 weeks, result in words): helpful in inhibiting high fat induced obesity
decrease of body weight compared with HFD group [12, 13]: 9.84%
body weight ([12]; HFD+DHB group, 8 weeks, HFD group 37 g): 33.36 g
decrease of body weight compared with NC group ([12]; NC+DHB group, 1.5 mg/kg daily intragastric, at the 8th week): 7.75%
body weight ([12]; NC+DHB group, 8 weeks, NC group 33.96 g): 31.33 g
